{
  "source": "paper PMC8434884",
  "about": "(Journal of medicinal chemistry, 2020)",
  "key": {"[1]": {"molecular_target": "human h5-HT2AR (Homo sapiens, UniProt P28223)", "sequence (P28223 whole entry)": "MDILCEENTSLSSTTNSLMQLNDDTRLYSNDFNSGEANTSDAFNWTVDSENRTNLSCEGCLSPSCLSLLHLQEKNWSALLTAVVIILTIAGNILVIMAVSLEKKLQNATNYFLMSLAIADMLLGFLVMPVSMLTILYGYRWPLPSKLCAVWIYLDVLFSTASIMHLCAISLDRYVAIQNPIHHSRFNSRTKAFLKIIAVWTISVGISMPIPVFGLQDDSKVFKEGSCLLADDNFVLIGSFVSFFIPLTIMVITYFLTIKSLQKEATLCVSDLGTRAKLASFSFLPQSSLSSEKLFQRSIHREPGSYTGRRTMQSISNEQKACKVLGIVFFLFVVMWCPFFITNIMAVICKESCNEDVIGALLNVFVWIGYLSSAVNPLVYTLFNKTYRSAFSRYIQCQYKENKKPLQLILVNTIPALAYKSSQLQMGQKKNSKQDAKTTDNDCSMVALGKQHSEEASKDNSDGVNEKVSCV", "experiment": "5-HT-induced Cai2+ release assay in h5-HT2AR-CHO cells", "assay_type": "cell-based"}, "[2]": {"molecular_target": "T1, α 1B (Homo sapiens, UniProt P35368)", "T1 sequence (P35368 1-520)": "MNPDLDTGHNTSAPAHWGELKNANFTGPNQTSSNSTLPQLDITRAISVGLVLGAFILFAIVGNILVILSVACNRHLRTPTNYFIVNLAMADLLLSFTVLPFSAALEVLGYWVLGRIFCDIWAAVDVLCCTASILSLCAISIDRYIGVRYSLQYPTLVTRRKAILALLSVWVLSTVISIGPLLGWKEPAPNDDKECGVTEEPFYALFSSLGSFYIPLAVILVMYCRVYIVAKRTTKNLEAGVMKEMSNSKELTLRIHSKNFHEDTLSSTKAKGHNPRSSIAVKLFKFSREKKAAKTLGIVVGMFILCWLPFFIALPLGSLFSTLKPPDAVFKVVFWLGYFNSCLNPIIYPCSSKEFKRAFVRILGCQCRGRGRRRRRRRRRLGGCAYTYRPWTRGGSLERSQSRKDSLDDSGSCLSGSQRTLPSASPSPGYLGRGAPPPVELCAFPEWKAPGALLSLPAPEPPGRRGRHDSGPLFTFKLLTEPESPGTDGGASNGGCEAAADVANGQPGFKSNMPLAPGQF", "experiment": "NIMH PDSP radioligand binding displacement, α 1B", "conditions": "read-out: % inhibition (10 μM)"}, "[3]": {"system": "male Sprague–Dawley rats", "experiment": "WAY163909 versus saline two-lever drug discrimination assay", "assay_type": "in vivo, rat", "conditions": "12 alone 0.5–5 mg/kg ip"}, "[4]": {"molecular_target": "T2, human 5-HT2CR (unedited INI isoform) (Homo sapiens, UniProt P28335)", "T2 sequence (P28335 33-458)": "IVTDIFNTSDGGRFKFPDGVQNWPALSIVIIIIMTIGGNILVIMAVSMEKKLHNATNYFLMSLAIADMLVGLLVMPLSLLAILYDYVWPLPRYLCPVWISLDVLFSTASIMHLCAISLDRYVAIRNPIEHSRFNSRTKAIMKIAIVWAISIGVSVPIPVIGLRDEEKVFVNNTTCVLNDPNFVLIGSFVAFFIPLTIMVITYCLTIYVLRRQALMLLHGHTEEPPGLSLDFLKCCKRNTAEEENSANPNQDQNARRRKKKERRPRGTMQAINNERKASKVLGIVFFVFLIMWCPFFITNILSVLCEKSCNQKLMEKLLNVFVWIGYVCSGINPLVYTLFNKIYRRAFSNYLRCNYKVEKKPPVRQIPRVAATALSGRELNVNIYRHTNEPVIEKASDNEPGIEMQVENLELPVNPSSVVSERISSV", "conditions": "h5-HT2CR-CHO cells"}, "[5]": {"molecular_target": "CYP3A4 (Homo sapiens, UniProt P08684)", "sequence (P08684 whole entry)": "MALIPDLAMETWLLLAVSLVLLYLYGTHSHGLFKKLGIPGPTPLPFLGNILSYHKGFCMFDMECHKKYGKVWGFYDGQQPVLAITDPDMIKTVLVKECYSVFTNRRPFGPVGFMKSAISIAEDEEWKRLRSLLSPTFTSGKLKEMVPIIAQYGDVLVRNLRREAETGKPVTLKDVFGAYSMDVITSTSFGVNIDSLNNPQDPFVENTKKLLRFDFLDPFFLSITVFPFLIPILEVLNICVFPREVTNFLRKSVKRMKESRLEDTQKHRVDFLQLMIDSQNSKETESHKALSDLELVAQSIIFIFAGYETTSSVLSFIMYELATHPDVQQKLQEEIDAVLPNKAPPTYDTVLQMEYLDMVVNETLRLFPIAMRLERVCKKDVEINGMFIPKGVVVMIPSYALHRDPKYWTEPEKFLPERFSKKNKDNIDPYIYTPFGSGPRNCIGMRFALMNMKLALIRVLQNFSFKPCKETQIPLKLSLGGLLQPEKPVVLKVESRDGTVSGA", "experiment": "CYP3A4 inhibition", "conditions": "10 μM"}, "[6]": {"molecular_target": "CYP2C9 (Homo sapiens, UniProt P11712)", "sequence (P11712 whole entry)": "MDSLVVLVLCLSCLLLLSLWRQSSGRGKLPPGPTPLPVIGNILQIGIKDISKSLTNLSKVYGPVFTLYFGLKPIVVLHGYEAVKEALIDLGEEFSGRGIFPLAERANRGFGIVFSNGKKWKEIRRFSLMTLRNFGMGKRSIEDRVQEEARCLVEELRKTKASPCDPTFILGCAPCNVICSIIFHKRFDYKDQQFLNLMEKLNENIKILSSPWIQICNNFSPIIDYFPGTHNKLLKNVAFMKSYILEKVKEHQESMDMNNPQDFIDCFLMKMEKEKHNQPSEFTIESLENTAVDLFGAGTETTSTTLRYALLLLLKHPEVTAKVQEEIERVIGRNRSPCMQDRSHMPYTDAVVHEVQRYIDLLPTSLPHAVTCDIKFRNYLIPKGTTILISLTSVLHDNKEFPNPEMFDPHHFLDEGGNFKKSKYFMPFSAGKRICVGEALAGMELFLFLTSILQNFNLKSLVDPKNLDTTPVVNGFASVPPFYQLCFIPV", "experiment": "CYP2C9 inhibition", "conditions": "10 μM"}, "[7]": {"molecular_target": "CYP2D6 (Homo sapiens, UniProt P10635)", "sequence (P10635 whole entry)": "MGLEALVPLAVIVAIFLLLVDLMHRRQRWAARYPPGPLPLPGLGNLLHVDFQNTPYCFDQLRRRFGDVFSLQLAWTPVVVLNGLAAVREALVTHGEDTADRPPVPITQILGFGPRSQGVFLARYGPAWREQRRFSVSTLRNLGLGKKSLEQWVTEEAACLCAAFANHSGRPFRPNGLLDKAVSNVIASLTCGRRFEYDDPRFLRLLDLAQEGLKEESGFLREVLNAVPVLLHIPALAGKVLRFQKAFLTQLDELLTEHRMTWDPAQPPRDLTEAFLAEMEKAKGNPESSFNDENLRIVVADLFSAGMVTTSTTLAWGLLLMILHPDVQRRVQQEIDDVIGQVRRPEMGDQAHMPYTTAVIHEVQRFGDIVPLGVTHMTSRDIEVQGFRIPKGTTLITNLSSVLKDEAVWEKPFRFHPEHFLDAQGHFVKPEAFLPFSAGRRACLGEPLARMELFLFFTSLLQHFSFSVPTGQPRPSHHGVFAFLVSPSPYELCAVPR", "experiment": "CYP2D6 inhibition", "conditions": "10 μM"}, "[8]": {"molecular_target": "T3, CYP1A2 (Homo sapiens, UniProt P05177)", "T3 sequence (P05177 1-516)": "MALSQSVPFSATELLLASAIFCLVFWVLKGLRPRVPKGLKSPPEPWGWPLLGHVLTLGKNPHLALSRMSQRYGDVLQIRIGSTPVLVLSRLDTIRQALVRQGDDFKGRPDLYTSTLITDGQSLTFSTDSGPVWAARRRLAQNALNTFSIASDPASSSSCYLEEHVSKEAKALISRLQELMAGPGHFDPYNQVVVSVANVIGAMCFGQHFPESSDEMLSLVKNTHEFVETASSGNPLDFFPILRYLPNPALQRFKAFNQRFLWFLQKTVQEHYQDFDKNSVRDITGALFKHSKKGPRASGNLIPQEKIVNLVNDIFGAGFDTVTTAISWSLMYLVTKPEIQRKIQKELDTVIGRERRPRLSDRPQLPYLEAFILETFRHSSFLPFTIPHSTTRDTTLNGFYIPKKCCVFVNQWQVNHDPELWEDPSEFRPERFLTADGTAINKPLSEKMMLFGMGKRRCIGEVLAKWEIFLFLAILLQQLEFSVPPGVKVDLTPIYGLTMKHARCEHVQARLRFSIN", "experiment": "CYP1A2 inhibition", "conditions": "10 μM"}, "[9]": {"molecular_target": "CYP2C19 (Homo sapiens, UniProt P33261)", "sequence (P33261 whole entry)": "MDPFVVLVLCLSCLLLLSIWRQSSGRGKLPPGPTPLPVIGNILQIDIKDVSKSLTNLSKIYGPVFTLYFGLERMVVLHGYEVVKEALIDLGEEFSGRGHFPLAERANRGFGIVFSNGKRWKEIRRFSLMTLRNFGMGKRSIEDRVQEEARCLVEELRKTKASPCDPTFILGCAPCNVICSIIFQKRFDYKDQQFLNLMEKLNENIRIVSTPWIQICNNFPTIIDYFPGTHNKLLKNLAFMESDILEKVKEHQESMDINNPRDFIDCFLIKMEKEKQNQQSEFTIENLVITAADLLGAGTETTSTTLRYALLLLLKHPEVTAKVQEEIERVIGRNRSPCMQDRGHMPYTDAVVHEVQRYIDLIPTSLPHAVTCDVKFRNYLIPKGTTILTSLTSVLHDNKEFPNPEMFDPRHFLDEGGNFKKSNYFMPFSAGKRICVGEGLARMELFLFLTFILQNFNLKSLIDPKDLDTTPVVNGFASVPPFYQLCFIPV", "experiment": "CYP2C19 inhibition", "conditions": "10 μM"}, "[10]": {"experiment": "kinetic solubility", "conditions": "2 h"}, "[11]": {"experiment": "rat liver microsomal clearance", "conditions": "microsomes"}},
  "note": "Entries after “also recorded” stand apart in the source; their conditions may differ.",
  "data": [
    {"smiles": "O=C(NC[C@H](O)CO)[C@@H]1C[C@H](c2ccccc2)CCN1", "note": "(mixture of isomers) [Compound 12, (2,4-cis)-N-((S)-2,3-Dihydroxypropyl)-4-phenylpiperidine-2-carboxamide]", "values": [
      {"measurement": "alteration of Emax or EC50 of 5-HT-induced Cai2+ release (in words)", "setting": "[1]", "value": "no alteration in the Emax or EC50; also recorded: inactive as an agonist or allosteric modulator"},
      {"measurement": "inhibition at 10 µM", "setting": "[2]", "value": -11, "unit": "%"},
      {"measurement": "response rates (in words)", "setting": "[3]", "value": "no change in response rates"},
      {"measurement": "substitution for WAY163909 (lever responding, in words)", "setting": "[3]; 30 min prior to testing", "value": "evoked saline lever responding"},
      {"measurement": "5-HT2CR positive allosteric modulator activity (in words)", "setting": "[4]; 1 nM, 5-HT-induced Cai2+ release", "value": "significant PAM activity"},
      {"measurement": "intrinsic agonist activity to induce Cai2+ release prior to addition of 5-HT", "setting": "[4]; compound added 15 min before 5-HT", "value": "did not exhibit intrinsic activity"},
      {"measurement": "CYP3A4 inhibition", "setting": "[5]", "value": "0.0% (10 μM)"},
      {"measurement": "CYP2C9 inhibition", "setting": "[6]", "value": "0.0% (10 μM)"},
      {"measurement": "CYP2D6 inhibition", "setting": "[7]", "value": "1.9% (10 μM)"},
      {"measurement": "CYP1A2 inhibition", "setting": "[8]", "value": "11.8% (10 μM)"},
      {"measurement": "CYP2C19 inhibition", "setting": "[9]", "value": "0.0% (10 μM)"},
      {"measurement": "kinetic solubility (PBS; pH 7.4)", "setting": "[10]", "value": "highly soluble"},
      {"measurement": "microsomal CLint at 10 μM", "setting": "[11]", "value": "< 9.6", "unit": "µL/min/mg"}
    ]}
  ]
}
